The values below come from PubChem BioAssay (NCI).

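Five concentrations, 48 hours, 96-well plates. GI50 marks 50% less growth. The concentration for full growth arrest is given as TGI.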

Among the test systems are DLD-1 colon; DMS 114 small cell lung; DMS 273 small cell lung; M19-MEL melanoma; XF 498 CNS; BT-549 breast; MCF7 breast; MDA-MB-435; MDA-MB-231 breast; NCI/ADR-RES ovarian.
Common to all, as to experiment: NCI anticancer screen, dose series, 48 h

In the case of `COC(OC)c1cc2c(cc1C(=O)[C@@]13CCC[C@@H]1NC(=O)O3)OCO2`, the TGI in the test with DLD-1 colon, with DMS 114 small cell lung, in the test with DMS 273 small cell lung, in the test on M19-MEL melanoma and in the test on XF 498 CNS was more than 100 µM in each case.

For `COc1ccc(CCN=C2CCC(C(=O)NCCc3ccc(OC)c(OC)c3)N2)cc1OC` (stereo not drawn), the TGI with DLD-1 colon, with DMS 114 small cell lung, in the test with DMS 273 small cell lung and in the test on XF 498 CNS was more than 100 µM in each case.

`CC(=O)C1C(=O)N(C(C)C)C[C@@H]2CCC(=O)C[C@H]12` (stereo partly drawn): the TGI with DLD-1 colon, in the test with DMS 114 small cell lung, in the test on DMS 273 small cell lung, with M19-MEL melanoma and in the test on XF 498 CNS was more than 100 µM in each case.

Regarding `Cc1c(C(=O)CSc2nc3ccccc3[nH]2)c(=O)n(-c2ccccc2)n1C`, the TGI in the test with DLD-1 colon, with DMS 273 small cell lung, in the test on M19-MEL melanoma and with XF 498 CNS was more than 100 µM each time.

With `C/C(CC(=O)N(C(C)C)C(C)C)=N\NC(=O)c1ccncc1`, the TGI in the test on DLD-1 colon, with DMS 273 small cell lung, in the test with M19-MEL melanoma and with XF 498 CNS was more than 100 µM throughout.

Turning to `O=C1c2ccccc2C(=O)c2nc3ccc(Cl)cc3cc21`, the TGI with DLD-1 colon, in the test on DMS 114 small cell lung, in the test on DMS 273 small cell lung, with M19-MEL melanoma and in the test with XF 498 CNS was more than 100 µM in each case.

As for `COc1ccc2nc3ccccc3c(NCCCCN(C)CCCl)c2c1`, the TGI is 1.98 µM in the test with BT-549 breast; 0.964 µM in the test on DLD-1 colon; 0.283 µM with DMS 273 small cell lung; 0.602 µM in the test on M19-MEL melanoma; 0.172 µM with MCF7 breast; 0.325 µM in the test with MDA-MB-435. In the test on XF 498 CNS, this compound yielded a TGI of 0.293 µM.

On to `CN1CCc2c1nc(-c1ccc([N+](=O)[O-])cc1)c1c2N(C)CC1`, for which the TGI in the test on DLD-1 colon, in the test on DMS 114 small cell lung, in the test on M19-MEL melanoma and with XF 498 CNS was more than 100 µM in each case.

For the compound `CCOC(=O)C1COc2cc(-c3cc(=O)c4ccccc4o3)ccc2O1` (stereo not drawn), the TGI is more than 100 µM in the test with DLD-1 colon; more than 100 µM with DMS 114 small cell lung; more than 100 µM with DMS 273 small cell lung; more than 100 µM in the test on M19-MEL melanoma; 96.9 µM in the test on XF 498 CNS.

In the case of `CC1CC[C@]2(C(=O)O)CCC3(C)C(=CCC4[C@@]5(C)CC[C@H](OS(=O)(=O)c6ccccc6)C(C)(C)C5CC[C@]43C)[C@@H]2[C@H]1C` (stereo partly drawn), the TGI in the test on DLD-1 colon, in the test with DMS 114 small cell lung, in the test with DMS 273 small cell lung, in the test with M19-MEL melanoma and in the test with XF 498 CNS was more than 100 µM throughout.

`COc1ccc(C2CCc3cc4c(cc3/C2=N/OC(C)=O)OCO4)cc1OC` (stereo not drawn): the TGI with DMS 114 small cell lung was determined as 51.9 µM; with DMS 273 small cell lung it was 78.1 µM; in the test on M19-MEL melanoma, 71 µM; in the test on XF 498 CNS it was 57.5 µM.

`Nc1ccc(S(=O)(=O)Nc2cnc3c(Cl)cccc3n2)cc1`: the GI50 in the test on BT-549 breast is 220 µM; with MCF7 breast it was 45.3 µM; with MDA-MB-231 breast, 78.1 µM; in the test on MDA-MB-435, 31.5 µM. Moreover, the TGI with BT-549 breast is more than 750 µM; in the test with DLD-1 colon, more than 655 µM; in the test with DMS 114 small cell lung it was 202 µM; in the test on DMS 273 small cell lung, 467 µM; in the test with M19-MEL melanoma, more than 625 µM; in the test on MCF7 breast, more than 721 µM. For the same compound, the TGI in the test on MDA-MB-231 breast is more than 750 µM; with MDA-MB-435, more than 750 µM; in the test with NCI/ADR-RES ovarian, 629 µM; with XF 498 CNS, 719 µM.

As to `COc1cc2cc3c4c(cc(OC)c(OC)c4c2cc1OC)CCN3C(=O)CCC(=O)NCCCN(C)C`, the TGI with DLD-1 colon was 30.9 µM; in the test on DMS 114 small cell lung, more than 100 µM; with DMS 273 small cell lung, more than 100 µM; in the test with M19-MEL melanoma it was 55.4 µM; in the test with XF 498 CNS, more than 100 µM.

For `Cc1cc(Cl)cc2c1NC(=O)C2=O` (tested in a mixture with another compound), the TGI was more than 100 µM in the test with DLD-1 colon; 72.1 µM in the test on DMS 114 small cell lung; more than 100 µM with DMS 273 small cell lung; 28.8 µM in the test with M19-MEL melanoma; 62.4 µM with XF 498 CNS.

For the compound `C[C@@H]1C[C@]2(C[C@@H](C)C3[C@@H](CC4(C)[C@@H]5CCC6C(C)(C)OC(=O)C=C[C@]67C[C@@]5(CC[C@]34C)OO7)O2)OC1=O` (stereo partly drawn), the TGI with DLD-1 colon was more than 100 µM; with DMS 114 small cell lung, more than 100 µM; in the test with DMS 273 small cell lung it was more than 100 µM; in the test with XF 498 CNS, 73.9 µM.

Consider `COc1ccccc1NC(=O)C(CC(C(=O)Nc1ccccc1OC)/C(C)=N/Nc1ccc([N+](=O)[O-])cc1[N+](=O)[O-])/C(C)=N/Nc1ccc([N+](=O)[O-])cc1[N+](=O)[O-]` (stereo not drawn), for which the TGI with DLD-1 colon, with DMS 273 small cell lung, in the test on M19-MEL melanoma and with XF 498 CNS was more than 100 µM throughout.

For `O=C(c1ccc(Cl)cc1)C1OC12C(=O)Nc1ccccc12` (stereo not drawn), the TGI was 31.4 µM with BT-549 breast; 6.29 µM with DLD-1 colon; 26.2 µM in the test on DMS 114 small cell lung; 25.4 µM in the test with DMS 273 small cell lung; 23.3 µM in the test on M19-MEL melanoma; 50.5 µM in the test with MDA-MB-231 breast. Moreover, the values for the TGI in the test with MDA-MB-435 and with XF 498 CNS were 35.5 µM and 25 µM, respectively.

`COC(=O)/C(=N/NC(N)=O)C(C(=O)OC)C(=O)C(=O)Nc1ccc(Cl)cc1` (stereo not drawn): the TGI with DLD-1 colon, in the test with DMS 114 small cell lung, in the test with DMS 273 small cell lung, in the test on M19-MEL melanoma and in the test with XF 498 CNS was more than 100 µM in each case.

For the compound `COC(=O)CC(C(C(C)=O)C(=O)OCc1ccccc1)N1C(=O)OCC1c1ccccc1` (stereo not drawn), the TGI with DLD-1 colon, in the test with DMS 114 small cell lung, in the test on DMS 273 small cell lung, in the test with M19-MEL melanoma and in the test on XF 498 CNS was more than 100 µM throughout.

For `CCOc1ccc(C(CN2CCOCC2)C(C)=O)cc1OC` (stereo not drawn), the TGI with DLD-1 colon was determined as 27.9 µM; with DMS 114 small cell lung, 34 µM; in the test on DMS 273 small cell lung, 23.3 µM; with M19-MEL melanoma it was 34.1 µM; in the test with XF 498 CNS, 40.8 µM.

`S=c1nc(-c2ccnc(-c3nc(=S)[nH][nH]3)c2)[nH][nH]1`: the TGI in the test on DLD-1 colon, with DMS 114 small cell lung, with DMS 273 small cell lung, with M19-MEL melanoma and in the test with XF 498 CNS was more than 100 µM throughout.

As for `COc1ccc(CCc2cc(OC)c(OC)c(OC)c2)cc1`, the TGI is more than 100 µM with BT-549 breast; more than 100 µM with DLD-1 colon; 0.323 µM in the test on DMS 114 small cell lung; 1.43 µM in the test on DMS 273 small cell lung; more than 100 µM in the test with M19-MEL melanoma; more than 100 µM in the test with MCF7 breast. In addition, the TGI is 15.7 µM in the test with MDA-MB-231 breast, 0.0345 µM in the test on MDA-MB-435, more than 100 µM with NCI/ADR-RES ovarian and 20.6 µM in the test with XF 498 CNS.

`O=c1cc(-c2ccccn2)[nH]c2ccc(Cl)cc12`: the TGI with DLD-1 colon is more than 100 µM; with DMS 114 small cell lung, 49 µM; in the test with M19-MEL melanoma, more than 100 µM; in the test with XF 498 CNS it was more than 100 µM. Besides, the GI50 in the test on DMS 114 small cell lung is 13.9 µM.

Regarding `COc1cc(/C=C(\C#N)C(N)=C(C#N)C#N)cc(O)c1O`, the TGI in the test with BT-549 breast, with DLD-1 colon, in the test on DMS 114 small cell lung, in the test on DMS 273 small cell lung, with M19-MEL melanoma and with MCF7 breast was more than 100 µM throughout. Besides, the TGI in the test on MDA-MB-231 breast, in the test with MDA-MB-435, in the test with NCI/ADR-RES ovarian and in the test on XF 498 CNS was more than 100 µM in each case.

With `CNC(=O)CN(CC(N)=O)C(N)=O`, the TGI with DLD-1 colon, in the test with DMS 273 small cell lung, in the test with M19-MEL melanoma and in the test with XF 498 CNS was more than 100 µM in each case.

Regarding `CCSC(SCC)=C1C(=O)N(c2ccccc2)N=C1C`, the TGI in the test on DLD-1 colon worked out at 26.8 µM; in the test on DMS 273 small cell lung, 32 µM; in the test with M19-MEL melanoma, 1.83 µM; with XF 498 CNS, 22.7 µM.

On to `CCOC(=O)[C@H]1Nc2ccccc2C2c3ccccc3CC21` (stereo partly drawn), for which the TGI in the test on DLD-1 colon, with DMS 114 small cell lung, with DMS 273 small cell lung, with M19-MEL melanoma and with XF 498 CNS was more than 100 µM throughout.

As to `N[C@@H]1CCCC[C@@H]1N.O=P([O-])([O-])CN(CP(=O)([O-])[O-])CP(=O)([O-])[O-].[Pt+2]`, the GI50 in the test with DLD-1 colon, in the test with DMS 273 small cell lung, with M19-MEL melanoma and in the test on XF 498 CNS was more than 100 µM throughout. Also, the TGI in the test on DLD-1 colon, in the test on DMS 273 small cell lung, in the test on M19-MEL melanoma and in the test on XF 498 CNS was more than 100 µM each time.
